Laboratory results reported in patent US20240376126A1, “PRMT5 INHIBITOR AND THE USE THEREOF” (CYTOSINLAB THERAPEUTICS CO., LTD., priority 2022, published 2024).

How the values were obtained:
HCT116 MTAP WT cells = assay: Proliferation inhibition of HCT116 cells in vitro (CellTiter Glo, 6 days); assay type: cell-based; conditions: Homo sapiens, HCT-116, 144 h, read-out: Cell proliferation inhibition rate HCT116 MTAP WT IC50 (nm)
[1] = tested on: HCT116-MTAP-KO (MTAP null) cells; assay: Proliferation inhibition of HCT116 MTAP-KO cells in vitro (CellTiter Glo, 6 days); assay type: cell-based; conditions: HCT116-MTAP null, 144 h, read-out: Cell proliferation inhibition rate HCT116-MTAP null IC50 (nm)

| Compound | IC50 (HCT116 MTAP WT cells) | IC50 [1] |
| --- | --- | --- |
| Cc1ncc2c(N)nc3cc(F)c(C(=O)N(Cc4cn5cc(CN6CCOCC6)ccc5n4)c4ccnn4C)cc3n12 [Example 243] | 1000 to 10000 nM | 100 to 1000 nM |
| Cc1ncc2c(N)nc3cc(F)c(C(=O)N(Cc4cn5ccccc5n4)c4ccnn4C)cc3n12 [Example 244] | 1000 to 10000 nM | < 100 nM |
| Cc1ncc2c(N)nc3cc(F)c(C(=O)N(Cc4nc5ccc(C(F)(F)F)cc5[nH]4)c4ccnn4C)cc3n12 [Example 245] | 1000 to 10000 nM | < 100 nM |
| Cc1ncc2c(N)nc3cc(F)c(C(=O)N(Cc4cn5cc(C(F)(F)F)ccc5n4)c4ccnn4C(F)F)cc3n12 [Example 246] | 1000 to 10000 nM | < 100 nM |
| CCN(Cc1cn2cc(-c3cnn(C)c3)ccc2n1)C(=O)c1cc2c(cc1F)nc(N)c1cnc(C)n12 [Example 247] | 1000 to 10000 nM | 100 to 1000 nM |
| CCN(Cc1cn2cc(CN3CCOCC3)ccc2n1)C(=O)c1cc2c(cc1F)nc(N)c1c(C)ncn12 [Example 249] | 1000 to 10000 nM | 100 to 1000 nM |
| CCN(Cc1cc2ccccn2n1)C(=O)c1cc2c(cc1F)nc(N)c1cnc(C)n12 [Example 250] | 1000 to 10000 nM | < 100 nM |
| Cc1ncc2c(N)nc3cc(F)c(C(=O)N(Cc4cn5ccccc5n4)CC(F)F)cc3n12 [Example 252] | 1000 to 10000 nM | 100 to 1000 nM |
| Cc1ncn2c1c(N)nc1cc(F)c(C(=O)N(Cc3cn4cc(C#N)ccc4n3)c3cnn(C)c3)cc12 [Example 253] | 1000 to 10000 nM | 100 to 1000 nM |
| Cc1ncn2c1c(N)nc1cc(F)c(C(=O)N(Cc3cn4cc(CN5CCOCC5)ccc4n3)c3cnn(C)c3)cc12 [Example 254] | 1000 to 10000 nM | 100 to 1000 nM |
| Cc1ncn2c1c(N)nc1cc(F)c(C(=O)N(Cc3cn4ccccc4n3)c3cnn(C)c3C)cc12 [Example 255] | 1000 to 10000 nM | 100 to 1000 nM |
| Cc1ncn2c1c(N)nc1cc(F)c(C(=O)N(Cc3cn4ccccc4n3)c3cnn(C)c3)cc12 [Example 257] | 1000 to 10000 nM | 100 to 1000 nM |
| CCN(Cc1cn2cc(-c3cnn(C)c3)ccc2n1)C(=O)c1cc2c(cc1F)nc(N)c1c(C)ncn12 [Example 258] | 1000 to 10000 nM | 100 to 1000 nM |
| Cc1ncn2c1c(N)nc1cc(F)c(C(=O)N(Cc3cn4cc(C(F)(F)F)ccc4n3)c3cnn(C)c3)cc12 [Example 259] | 1000 to 10000 nM | < 100 nM |
| Cc1ncn2c1c(N)nc1cc(F)c(C(=O)N(Cc3cn4ccccc4n3)C3CCC3O)cc12 (centres unmarked) [Example 261] | 1000 to 10000 nM | 100 to 1000 nM |
| Cc1ncn2c1c(N)nc1cc(F)c(C(=O)N(Cc3cn4ccccc4n3)c3cnn(C)n3)cc12 [Example 262] | 1000 to 10000 nM | < 100 nM |
| CCN(Cc1cn2cc(OC)ccc2n1)C(=O)c1cc2c(cc1F)nc(N)c1c(C)ncn12 [Example 263] | 1000 to 10000 nM | 100 to 1000 nM |
| Cc1ncn2c1c(N)nc1cc(F)c(C(=O)N(CCC#N)Cc3cn4ccccc4n3)cc12 [Example 264] | 1000 to 10000 nM | 100 to 1000 nM |
| CCN(Cc1cn2cc(F)ccc2n1)C(=O)c1cc2c(cc1F)nc(N)c1c(C)ncn12 [Example 267] | 1000 to 10000 nM | < 100 nM |
| CCN(Cc1cn2ccccc2n1)C(=O)c1cc2c(cc1C)nc(N)c1cnc(C)n12 [Example 268] | 1000 to 10000 nM | 100 to 1000 nM |
| Cc1ncn2c1c(N)nc1cc(F)c(C(=O)N(Cc3nc4ccc(C(F)(F)F)cc4[nH]3)CC(C)C)cc12 [Example 269] | 1000 to 10000 nM | 100 to 1000 nM |
| COCC(C)N(Cc1cn2ccccc2n1)C(=O)c1cc2c(cc1F)nc(N)c1c(C)ncn12 (centres unmarked) [Example 271] | 1000 to 10000 nM | < 100 nM |
| CCN(Cc1cn2c(C)cccc2n1)C(=O)c1cc2c(cc1F)nc(N)c1c(C)ncn12 [Example 272] | 1000 to 10000 nM | 100 to 1000 nM |
| COC1CC(N(Cc2cn3ccccc3n2)C(=O)c2cc3c(cc2F)nc(N)c2c(C)ncn23)C1 (centres unmarked) [Example 273] | 1000 to 10000 nM | < 100 nM |
| CCN(Cc1cn2ccccc2n1)C(=O)c1cc2c(cc1F)nc(N)c1c(C)ncn12 [Example 274] | 1000 to 10000 nM | 100 to 1000 nM |

| Compound | IC50 (HCT116 MTAP WT cells) | IC50 [1] |
| --- | --- | --- |
| Cc1ncc2c(N)nc3cc(F)c(C(=O)N(Cc4nc5ccc(C(F)(F)F)cc5[nH]4)CC(C)C)cc3n12 [Example 276] | 1000 to 10000 nM | 100 to 1000 nM |
| Cc1ncn2c1c(N)nc1cc(F)c(C(=O)N(Cc3cn4ccccc4n3)CC(C)C)cc12 [Example 277] | 1000 to 10000 nM | < 100 nM |
| COC1CCCC1N(Cc1cn2ccccc2n1)C(=O)c1cc2c(cc1F)nc(N)c1c(C)ncn12 (centres unmarked) [Example 278] | 1000 to 10000 nM | < 100 nM |
| CCN(Cc1cn2ccccc2n1)C(=O)c1ccc2nc(N)c3ncc(C)n3c2c1 [Example 279] | 1000 to 10000 nM | 100 to 1000 nM |
| Cc1ncn2c1c(N)nc1cc(F)c(C(=O)N(Cc3cn4cc(C(F)(F)F)ccc4n3)C3CCC3O)cc12 (centres unmarked) [Example 280] | 1000 to 10000 nM | 100 to 1000 nM |
| Cc1ncn2c1c(N)nc1cc(F)c(C(=O)N(Cc3cn4cc(C(F)(F)F)ccc4n3)CC(C)C)cc12 [Example 282] | 1000 to 10000 nM | < 100 nM |
| COC1CCC1N(Cc1cn2cc(C(F)(F)F)ccc2n1)C(=O)c1cc2c(cc1F)nc(N)c1c(C)ncn12 (centres unmarked) [Example 284] | 100 to 1000 nM | < 100 nM |
| COCC(C)N(Cc1cn2cc(C(F)(F)F)ccc2n1)C(=O)c1cc2c(cc1F)nc(N)c1c(C)ncn12 (centres unmarked) [Example 285, 4-Amino-7-fluoro-N-(1-methoxypropan-2-yl)-3-methyl-N-((6-(trifluoromethyl)imidazolo[1,2-a]pyridin-2-yl)methyl)imidazo[1,5-a]quinoxalin-8-carboxamide] | 100 to 1000 nM | < 100 nM |
| COC1CCC1N(Cc1cn2cc(C(F)(F)F)ccc2n1)C(=O)c1ccc2nc(N)c3c(C)ncn3c2c1 (centres unmarked) [Example 286] | 1000 to 10000 nM | < 100 nM |
| COCC(C)N(Cc1cn2cc(C(F)(F)F)ccc2n1)C(=O)c1ccc2nc(N)c3c(C)ncn3c2c1 (centres unmarked) [Example 288] | 1000 to 10000 nM | < 100 nM |
| Cc1cnn2c1c(N)nc1ccc(C(=O)N(Cc3cn4cc(C(F)(F)F)ccc4n3)CC(C)C)cc12 [Example 290] | 1000 to 10000 nM | < 100 nM |
| Cc1ncn2c1c(N)nc1ccc(C(=O)N(c3cnn(C)c3)C(C)c3cn4cc(C(F)(F)F)ccc4n3)cc12 (centres unmarked) [Example 292] | 1000 to 10000 nM | 100 to 1000 nM |
| Cc1ncn2c1c(N)nc1ccc(C(=O)N(Cc3cn4cc(C(F)(F)F)ccc4n3)c3cnn(C)c3)cc12 [Example 293] | 1000 to 10000 nM | 100 to 1000 nM |
| COC1CCCC1N(Cc1cn2cc(C(F)(F)F)ccc2n1)C(=O)c1ccc2nc(N)c3c(C)ncn3c2c1 (centres unmarked) [Example 294] | 1000 to 10000 nM | < 100 nM |
| Cc1ncn2c1c(N)nc1ccc(C(=O)N(CC(C)C)C(C)c3cn4cc(C(F)(F)F)ccc4n3)cc12 (centres unmarked) [Example 296] | 1000 to 10000 nM | 100 to 1000 nM |
| Cc1ncn2c1c(N)nc1ccc(C(=O)N(Cc3cn4ccccc4n3)CC(C)C)cc12 [Example 297] | 1000 to 10000 nM | < 100 nM |
| CCN(C(=O)c1ccc2nc(N)c3c(C)ncn3c2c1)C(C)c1cn2ccccc2n1 (centres unmarked) [Example 298] | 1000 to 10000 nM | 100 to 1000 nM |
| Cc1ncn2c1c(N)nc1ccc(C(=O)N(Cc3cn4cc(C(F)(F)F)ccc4n3)CC(C)C)cc12 [Example 299] | 1000 to 10000 nM | < 100 nM |
| Cc1ncc2c(N)nc3ccc(C(=O)N(Cc4cn5cc(C(F)(F)F)ccc5n4)c4c(F)cnn4C)cc3n12 [Example 300] | 1000 to 10000 nM | < 100 nM |
| Cc1ncc2c(N)nc3cnc(C(=O)N(Cc4cn5cc(C(F)(F)F)ccc5n4)c4c(F)cnn4C)cc3n12 [Example 302] | 100 to 1000 nM | < 100 nM |
| Cc1ncc2c(N)nc3cc(F)c(C(=O)N(Cc4cn5cc(C(F)F)ccc5n4)c4c(F)cnn4C)cc3n12 [Example 303] | 100 to 1000 nM | < 100 nM |
| CC(c1ncccn1)N(Cc1nc2cnccc2s1)C(=O)c1ccc2nc(N)c3c(c2c1)COC3 (centres unmarked) [Example 304, 4-Amino-N-(1-(pyrimidin-2-yl)ethyl)-N-(thiazolo[4,5-c]pyridin-2-ylmethyl)-1,3-dihydrofurano[3,4-c]quinolin-8-carboxamide] | 100 to 1000 nM | < 100 nM |
| Cc1nn(C)cc1N(Cc1cn2cc(C(F)(F)F)ccc2n1)C(=O)c1ccc2nc(N)c3c(c2c1)CO[C@@H]3C [Example 305, (3R)-4-Amino-N-(1,3-dimethylpyrazol-4-yl)-3-methyl-N-[[6-(trifluoromethyl)imidazo[1,2-a]pyridin-2-yl]methyl]-1,3-dihydrofurano[3,4-c]quinolin-8-carboxamide] | 1000 to 10000 nM | < 100 nM |
| Cc1nn(C)cc1N(Cc1cn2cc(C(F)(F)F)ccc2n1)C(=O)c1ccc2nc(N)c3c(c2c1)COC3C (centres unmarked) [Example 313, 4-Amino-N-(1,3-dimethylpyrazol-4-yl)-3-methyl-N-[[6-(trifluoromethyl)imidazolo[1,2-a]pyridin-2-yl]methyl]-1,3-dihydrofurano[3,4-c]quinolin-8-carboxamide] | 1000 to 10000 nM | < 100 nM |
